Measurements: paper PMC4078735 (Journal of biomolecular screening, 2013)
Where a name gives a salt, the structure may show the parent alone.

How the values were obtained:
[1] = PAMPA
[2] = PAMPA; for Permeability (Log Pe, cm/sec) Porcine polar brain lipid (PBL): pig, pH 7.4
[3] = PAMPA; remark: listed apart in the source
[4] = PAMPA; for Permeability (Log Pe, cm/sec) Microvessel lipid + cholesterol (MVLC): pH 7.4
[5] = in vitro; settings: PAMPA, pH 7.4
[6] = in vitro; settings: PAMPA, pH 7.4; remark: listed apart in the source

## CCC(=O)C(CC(C)N(C)C)(c1ccccc1)c1ccccc1 (racemic) [Methadone, (±) methadone HCl]
[1]; pH 7.4
  Permeability (Log Pe, cm/sec) Dodecane: −1.54 ± 0.05 cm/sec
[2]
  Permeability (Log Pe, cm/sec) Porcine polar brain lipid (PBL): −0.37 ± 0.07 cm/sec

## Cc1nnc2n1-c1ccc(Cl)cc1C(c1ccccc1)=NC2 [Alprazolam, alprazolam]
[3]
  Permeability in the MVL model (in words): highly permeability
[4]
  Permeability in the MVLC model (in words): highly permeability
[2]
  Permeability in the PBL model (in words): highly permeability

## CO[C@]12CC[C@@]3(C[C@@H]1[C@](C)(O)C(C)(C)C)[C@H]1Cc4ccc(O[C@@H]5O[C@H](C(=O)O)[C@@H](O)[C@H](O)[C@H]5O)c5c4[C@@]3(CCN1CC1CC1)[C@H]2O5 [Buprenorphine glucuronide, buprenorphine-3-β-D-glucuronide]
[4]
  Permeability (Log Pe, cm/sec) Microvessel lipid + cholesterol (MVLC): −3.27 ± 0.21 cm/sec

## Cn1c(=O)c2c(ncn2C)n(C)c1=O [Caffeine, caffeine]
[5]
  Papp at 2 h, 2 µM: 724 ×10⁻⁶ cm/s

## CN1CC[C@]23c4c5ccc(O)c4O[C@H]2[C@@H](O)CC[C@H]3[C@H]1C5 [Dihydromorphine, dihydromorphine]
[1]
  Ability to cross the dodecane barrier: unable to cross the barrier
[2]
  Permeability (Log Pe, cm/sec) Porcine polar brain lipid (PBL): −1.76 ± 0.09 cm/sec
[5]
  Papp: 1510 ×10⁻⁶ cm/s

## CN(C)C(=O)C(CCN1CCC(O)(c2ccc(Cl)cc2)CC1)(c1ccccc1)c1ccccc1 [Loperamide, loperamide]
[4]
  Permeability (Log Pe, cm/sec) Microvessel lipid + cholesterol (MVLC): −1.97 ± 0.08 cm/sec

## CN(C)C[C@H]1CCCC[C@]1(O)c1cccc(O)c1 [O-desmethyl tramadol, O-desmethyltramadol]
[2]
  Permeability (Log Pe, cm/sec) Porcine polar brain lipid (PBL): −0.97 ± 0.04 cm/sec

## COc1ccc2c3c1O[C@H]1C(=O)CC[C@@]4(O)[C@@H](C2)N(C)CC[C@]314 [Oxycodone, oxycodone]
[1]
  Ability to cross the dodecane barrier: unable to cross the barrier

## COc1cccc(C2(O)CCCCC2CN(C)C)c1 (centres unmarked) [Tramadol]
[6]
  Papp: 117 ×10⁻⁶ cm/s
